Patent EP0887077A1, “Use of azulene derivatives as metalloprotease inhibitors” (BOEHRINGER MANNHEIM GMBH, priority 1997, dated 1998)
pIC50: −log10 of the molar value.

tested on: TNF-α; assay: Inhibition of LPS-induced TNFα release from peripheral human leukocytes, TNFα-specific enzyme immunoassay of culture supernatant; format: cell-based; settings: Leukocyte, Periphere humane Leukozyten, LPS über 22 Std., TNFα im Kulturüberstand
Description: Periphere humane Leukozyten werden mit LPS über 22 Std. inkubiert. Der Kultutüberstand wird mit einem TNFα spezifischen Enzym-Immuno-Assay untersucht. Durch Vergleich der für die Messproben erhaltenen TNFα-Konzentrationen mit den ungehemmten Proben wird die prozentuale Hemmung für die einzelne Probe berechnet. Aus der Konzentrationsabhängigkeit der Hemmwerte werden rechnerisch die IC50-Werte bestimmt. […]
Die IC50-Werte der oben genannten Substanzen, die Gegenstand dieses Patentes sind, gegen TNF-α finden sich in der folgenden Tabelle;

Row | pIC50 | SMILES
1 | 5.57 | CCOC(=O)C(Cc1ccc2c(C(=O)OCC)c(Cl)c(C(=O)OCC)c-2cc1)=NO [Verbindung 9, 2-Chloro-6-(2-ethoxycarbonyl-2-hydroxyimino-ethyl)-azulen-1,3-dicarbonsäurediethylester]
2 | 4.92 | CCOC(=O)Cc1ccc2c(C(=O)OCC)c(OCC)c(C(=O)OCC)c-2cc1 [Verbindung 6, 2-Ethoxy-6-ethoxycarbonylmethyl-azulen-1,3-dicarbonsäurediethylester]
3 | 4.97 | Cc1cc(C=CC=O)c2c(C)ccc(C(C)C)cc1-2 [Verbindung 10, 3-(5-isopropyl-3,8-dimethyl-azulen-1-yl)-propenal]
4 | 6.74 | CCOC(=O)c1c2ccc(C(C(=O)OCC)C(=O)OCC)ccc-2c(C(=O)OCC)c1N(C(C)=O)C(C)=O [Verbindung 3, 6-(Bis-ethoxycarbonylmethyl)-2-diacetylamino-azulen-1,3-dicarbonsäurediethylester]
5 | 5.89 | CCOC(=O)c1c2ccc(Br)ccc-2c(C(=O)OCC)c1N(C(C)=O)C(C)=O [Verbindung 4, 6-Bromo-2-diacetylamino-azulen-1,3-dicarbonsäurediethylester]
6 | 7.30 | CCOC(=O)Cc1ccc2c(C(=O)OCC)c(N(C(C)=O)C(C)=O)c(C(=O)OCC)c-2cc1 [Verbindung 2, 2-Diacetylamino-6-ethoxycarbonylmethyl-azulen-1,3-dicarbonsäurediethylester]
7 | 4.60 | CCOC(=O)c1c2cccccc-2c(C(=O)OCC)c1N [Verbindung 7, 2-Amino-azulen-1,3-dicarbonsäurediethylester]
8 | 4.59 | CCOC(=O)c1c2ccc(S)ccc-2c(C(=O)OCC)c1N [Verbindung 8, 2-Amino-6-mercapto-azulen-1,3-dicarbonsäurediethylester]
9 | 6.70 | CCOC(=O)Cc1ccc2c(C(=O)OCC)c(N)c(C(=O)OCC)c-2cc1 [Verbindung 1, 2-Amino-6-ethoxycarbonylmethyl-azulen-1,3-dicarbonsäurediethylester]
10 | 5.96 | CCOC(=O)c1c2ccc(Br)ccc-2c(C(=O)OCC)c1NC(C)=O [Verbindung 5, 2-Acetylamino-6-bromo-azulen-1,3-dicarbonsäurediethylester]
